# Test: Toxicity study (necropsy, CBC, clinical chemistry) in tumor bearing mice
# Type: in vivo, C57BL/6 mice
# Conditions: mouse, in vivo
# Method: Six adult female mice were submitted to necropsy. The strain designation of the mice was C57BL/6. […]
# Animal studies were performed according to the animal studies protocol approved by Washington University Institutional Animal Care Facility. In vivo studies with mice were performed to compare the effects of SW V-49s, SV119. Erastin, a combination of SV119 with Erastin, and vehicle. […] C57BL/6 mice (6 weeks old. National Cancer Institute Laboratories) were injected in the right flank with 200 μL single cell suspension of KCKO cells in RPMI medium (25×10^4/10^5 cells per mouse). Mice were randomized into four groups (n=15). Treatment was started when the mean tumor diameter was ^˜5 mm. […] Erastin, equimolar mix of SV119 and Erastin. Tumors were measured every other day with a digital caliper. Several mice from different treatment groups were sent to the Division of Comparative Medicine in our institution for pathologic evaluation. Blood was collected for complete blood count (CBC) and biochemical analysis (AST, ALT, BUN, total bilirubin, and Cr). Organs were examined grossly and histologically.
substance,measurement,value
SW IV-134,differences in laboratory values (biochemical analysis) versus vehicle,not statistically significant

# — US10975069B2, “Sigma-2 receptor ligand drug conjugates as antitumor compounds, methods of synthesis and uses thereof” (priority 2014, dated 2021)
